Reference: US8822423B2 (Janssen Biotech, Inc., priority 2012, dated 2014)
Ends that are not written are not given here.

Assays:
infliximab [1] = assay: Confirmatory phage ELISA, binding of phage-displayed peptides to infliximab; conditions: FIG. 3, N value of 2
Method: 96-well black ELISA plates were coated with streptavidin (Columns 1 through 4), mAb competitor (Columns 5 and 6), hIgG (Columns 7 and 8), human serum albumin (Columns 9 and 10) and collagen (Columns 11 and 12), at a concentration of 5 micrograms/mL in PBS. Plates were incubated overnight at 4° C. Plates were washed 3 times with TBST using a plate washer. To the streptavidin-coated wells in columns 3 and 4, 100 microliters of a 5 micrograms/mL solution of biotinylated-infliximab was introduced and allowed to sit at room temperature for 30 minutes. To all other wells, 100 microliters of PBS was introduced. The plates were again washed 3 times with TBST using the plate washer. The wells were then blocked with 250 microliters of a 3% dehydrated milk suspension in TBST and allowed to sit at room temperature for a minimum of 1 hour. Using phage concentrations determined by the phage titrations, dilutions of the phage stock solutions were performed in a separate 96-well plate to result in phage concentrations of 10^10, 10^9, 10^8, 10^7, 10^6 and 10^5 phage/well. After blocking, the ELISA plate was washed 3 times with TBST and 100 microliters of the phage dilutions were introduced to the respective ELISA plates and allowed to sit at room temperature for a minimum of 1 hour. The ELISA plate was again washed 3 times with TBST using the plate washer and 100 microliters of an horseradish peroxidase (HRP)-conjugated Anti-M13 Phage Mab (1:5000 dilution in PBS) was introduced to each well. The plates were allowed to sit at room temperature for 1 hour after which time the plates were washed 3 times with TBST. Next, a peroxidase-based (POD) HRP-substrate was introduced to each well. The luminescence was read using a luminometer set with a gain of 150.

infliximab [2] = assay: Infliximab affinity peptide ELISA, concentration dependent binding; conditions: biotinylated synthesized peptides, 0.0028-500 micromolar, FIG. 5
Method: 96-well black ELISA plates were coated with goat anti-human Fc (Jackson Immunoresearch Laboratories, Inc., West Grove, Pa., cat. #109-006-098) at a concentration of 5 micrograms/mL in PBS. Plates were incubated overnight at 4° C. Plates were washed 3 times with TBST using a plate washer. […] To all other wells, 100 microliters of PBS was introduced. The plates were again washed 3 times with TBST using the plate washer. The wells were then blocked with 250 microliters of a 3% dehydrated milk suspension in TBST and allowed to sit at room temperature for a minimum of 1 hour. Biotinylated, chemically synthesized peptides having SEQ ID NO: 2, SEQ ID NO: 3, SEQ ID NO: 10, and SEQ ID NO: 13 were prepared using standard, automated Fluorenylmethyloxycarbonyl (Fmoc) solid phase peptide synthesis procedures. Each peptide solution for the assay was prepared from a 500 micromolar stock solution. The stock solution was serially diluted in assay buffer resulting in peptide concentrations of 500, 166.6, 55.5, 18.5, 6.2, 2.1, 0.69, 0.23, 0.076, 0.025, 0.0085 and 0.0028 micromolar.
After blocking, the ELISA plate was washed 3 times with TBST and 100 microliters of the serially diluted peptides were added to the corresponding wells of the ELISA plate and allowed to sit at room temperature for a minimum of 1 hour. […] The luminescence was read using a luminometer set with a gain of 150.

[3] = test system: WEHI-13VAR mouse fibroblasts; assay: In vitro bioactivity of infliximab in the presence of affinity peptides, MTT cell viability with TNF-α; assay type: cell-based; conditions: peptide 66 nanomolar, infliximab 0-66 nanomolar, overnight, FIG. 7
Method: In this experiment, we determined if the affinity peptides would interfere with the binding of tumor necrosis factor alpha (TNF-α) using WEHI-13VAR mouse fibroblasts.
WEHI-13VAR cells (mouse fibroblast cell line) were plated out in wells of a 96 well plate two hours prior to running the experiment at 50000 cells per well. […] After overnight incubation, cell viability was assessed using an MTT cell viability assay (R&D Systems, Inc., Minneapolis, Minn., cat #4890-050-K) following the product insert.

[4] = given by IV infusion; cited from earlier work

Substance | binding to infliximab (phage ELISA, relative luminescence) (infliximab [1]) | further results
SEQ ID NO: 1: infliximab affinity peptide of FIG. 1, identified by pIX phage display (AGWTVAYVPPGPSYATS) | confirms the binding | –
SEQ ID NO: 3: infliximab affinity peptide of FIG. 1; also chemically synthesized, biotinylated (AGTYCHPDQLRNLCPV; cysteine pairing not given here; also: biotinylated, position not given here) | confirms the binding | rank according to concentration-dependent binding to infliximab (infliximab [2]): SEQ ID NO: 2>SEQ ID NO: 10>SEQ ID NO: 3>SEQ ID NO: 13
SEQ ID NO: 4: infliximab affinity peptide of FIG. 1, identified by pIX phage display (AGVTCRMTEYGPMCPT) | confirms the binding | –
SEQ ID NO: 5: infliximab affinity peptide of FIG. 1, identified by pIX phage display (AGNRCAYAAGTIQCFP) | confirms the binding | –
SEQ ID NO: 6: infliximab affinity peptide of FIG. 1, identified by pIX phage display (AGEICYWHDTDWVCTE) | confirms the binding | –
SEQ ID NO: 7: infliximab affinity peptide of FIG. 1, identified by pIX phage display (AGTHCSYVLGRIECLP) | confirms the binding | –
SEQ ID NO: 8: infliximab affinity peptide of FIG. 1, identified by pIX phage display (AGNYCHPDQLSQFCAR) | confirms the binding | –
SEQ ID NO: 9: infliximab affinity peptide of FIG. 1, identified by pIX phage display (AGVACHSTGTNIYTCTY) | confirms the binding | –
SEQ ID NO: 11: infliximab affinity peptide of FIG. 1, identified by pIX phage display (AGSLCHTVGSGIYNCTK) | confirms the binding | –
SEQ ID NO: 12: infliximab affinity peptide of FIG. 1, identified by pIX phage display (AGIQCHDVGAGVVTCTY) | confirms the binding | –
SEQ ID NO: 13: infliximab affinity peptide of FIG. 1; also chemically synthesized, biotinylated (AGPPCIVTQLSDLSFCAP; cysteine pairing not given here; also: biotinylated, position not given here) | confirms the binding | rank according to concentration-dependent binding to infliximab (infliximab [2]): SEQ ID NO: 2>SEQ ID NO: 10>SEQ ID NO: 3>SEQ ID NO: 13; effect on the viability of WEHI-13VAR mouse fibroblasts in the presence of infliximab [3]: minimal effect
SEQ ID NO: 14: infliximab affinity peptide of FIG. 1, identified by pIX phage display (AGARCAPAFDANWLICSN) | confirms the binding | –
SEQ ID NO: 15: infliximab affinity peptide of FIG. 1, identified by pIX phage display (AGPPCAAAMAQAQLACTH) | confirms the binding | –
SEQ ID NO: 16: infliximab affinity peptide of FIG. 1, identified by pIX phage display (AGVVCATPEWTWDPACAT) | confirms the binding | –
SEQ ID NO: 17: infliximab affinity peptide of FIG. 1, identified by pIX phage display (AGLLCAPSLDPDYILCDQ) | confirms the binding | –
SEQ ID NO: 18: infliximab affinity peptide of FIG. 1; wild type for site-directed mutagenesis (AG-XXXX-PWPPTAES-XXXX mutants) (AGLLCEPWPPTAESICRS) | confirms the binding | –
SEQ ID NO: 19: infliximab affinity peptide of FIG. 1, identified by pIX phage display (AGPPYTVFVHL) | confirms the binding | –
SEQ ID NO: 20: infliximab affinity peptide of FIG. 1, identified by pIX phage display (AGYCISDYIDPCH) | confirms the binding | –
SEQ ID NO: 21: infliximab affinity peptide of FIG. 1, identified by pIX phage display (AGPCISDYFDPCH) | confirms the binding | –
SEQ ID NO: 22: infliximab affinity peptide of FIG. 1, identified by pIX phage display (AGLCPELPHC) | confirms the binding | –
SEQ ID NO: 23: infliximab affinity peptide of FIG. 1, identified by pIX phage display (AGPCPELPHCTY) | confirms the binding | –
infliximab: chimeric IgG1κ monoclonal antibody that blocks the action of TNF-alpha | – | half-life [4]: approximately eight
